Read-outs that look alike come from different tables or passages of the source.
How the values were obtained:
[1] = cited from earlier work
[2] = Constant composition HAP crystal growth inhibition; details: for Rate of HAP crystal growth: 37 °C, uninhibited rate 9.09; for Reduction of HAP crystal growth rate: concentration of 3.1×10^-5 M
Method: Hydroxyapatite seed crystals were prepared from calcium nitrate and potassium dihydrogen phosphate, as detailed elsewhere. The specific surface area, 34.9 m2 g-1, was determined by BET nitrogen adsorption using a 30/70 N2/He mixture (Monosorb, Quantachrome Corp). HAP crystals in the form of a suspension in water (41.8 g L-1) were used for the crystal growth experiments.
Solutions were prepared using triply distilled carbon dioxide-free water and filtered before use through washed 0.22 μm filters (Millipore, Bedford, Mass.). Calcium concentrations were determined either complexometrically by EDTA titration with Eriochrome Black-T as indicator, or by atomic absorption (Perkin-Elmer, model 3100, Norwich, Conn.). Carbon dioxide-free potassium hydroxide solutions were prepared from washed Reagent grade pellets in a nitrogen atmosphere.
Crystal growth experiments were made in magnetically-stirred water-jacketed Pyrex vessels at 37.0±0.05° C. with ionic strength, I=0.15 mol L^−1, adjusted by the addition of sodium chloride. Supersaturated solutions were prepared by introducing calcium chloride solution, followed by potassium dihydrogen phosphate solution. The pH was adjusted to the required value by the slow addition of potassium hydroxide solutions. During the reactions, carbon dioxide was excluded by bubbling with presaturated nitrogen gas. After equilibration, 0.5 mL of the HAP slurry was introduced to initiate the reaction. Since the nucleation and growth of crystals consume solution lattice ions, the lowering of pH was used to trigger the addition of two titrant solutions that served to maintain constant the pH, the concentrations of calcium and phosphate and the ionic strength of the solution. A glass electrode (Orion, model 9101), standardized using two NBS buffer solutions at pH=7.386 and 4.028 at 37° C., was used to control titrant addition through a potentiostat. The total calcium concentration in all experiments was 6.00×10^−4 mol L^−1 with a calcium/phosphate molar ratio of 1.67, so as to achieve a supersaturation with respect to HAP of σ=5.55 (as defined in Eq. (1)), as computed from mass balance, proton dissociation, electroneutrality, and equilibrium expressions involving calcium and phosphate species.
In Eq. (1), v is the number of ions per formula unit of precipitating phase and IP and KSO are, respectively, the ionic and solubility products of HAP.
During the reactions, samples were withdrawn periodically, filtered (0.22 μm Millipore filter) and analyzed for calciwn by atomic absorption and for phosphate spectrophotometrically (Varian, Cary 210) as the phosphovanadomolybdate complex in order to verify the constancy of the solution composition. Solid phases were examined by X-ray powder diffraction, XRD, (Siemens Nicolet/Nic spectrometer, CuK radiation with Ni filter=1.540; 2 from 3o to 45o), by scanning electron microscopy (SEM at 20 kV; JEOL JSM-5300, Noran Instrumental Inc. Middleton, Wis.) and by diffuse reflectance infared fourier transform spectroscopy (FTR, Perkin Elmer 1760×Fr-IR spectrometer). Plots of mineralization were calculated from plots of titrant volumes as a function of time as described previously.
It is quite well established that strong inhibitors of crystal growth, such as the phosphonates, act by blocking, through adsorption, active growth sites at the crystal surfaces. Commonly, inhibition kinetics data are interpreted in terms of a simple Langmuir adsorption model. Assuming that the adsorbed fullerene molecules occupy a fraction, θ, of the active growth sites, thereby preventing them from participating in the growth, the growth rate R can be written in terms of the uninhibited rate Ro (Eq. (2)): […]

[3] = Concentration 1.0 × 10^−6 mol/L

Molecule: CC(O)(P(=O)(O)O)P(=O)(O)O [CH3C(OH)[P(O)(OH)2]2, 1-hydroxyethylidene-1,1-diphosphonic acid]
- Percent Reduction in Growth Rate [1, 3]: 69^ref 29%
- Affinity Constant [1]: 13.3 × 10^5 ref 29 L mol^−1

Molecule: 4,4-bisphosphono-2-(polyhdroxyl-1,2-dihdro-1,2-methanofullerene[60]-61-carboxamido)butyric Acid [C60(OH)16AMBP]
- Rate of HAP crystal growth ([2]; C60(OH)16AMBP 0.39 × 10^−6 mol L^−1): 7.67 10^−8 mol min^−1 m^−2
- Rate of HAP crystal growth ([2]; C60(OH)16AMBP 0.77 × 10^−6 mol L^−1): 6.51 10^−8 mol min^−1 m^−2
- Rate of HAP crystal growth ([2]; C60(OH)16AMBP 1.16 × 10^−6 mol L^−1): 4.55 10^−8 mol min^−1 m^−2
- Rate of HAP crystal growth ([2]; C60(OH)16AMBP 1.54 × 10^−6 mol L^−1): 3.77 10^−8 mol min^−1 m^−2
- Rate of HAP crystal growth ([2]; C60(OH)16AMBP 1.93 × 10^−6 mol L^−1): 2.83 10^−8 mol min^−1 m^−2
- Rate of HAP crystal growth ([2]; C60(OH)16AMBP 2.32 × 10^−6 mol L^−1): 2.46 10^−8 mol min^−1 m^−2
- Rate of HAP crystal growth ([2]; C60(OH)16AMBP 2.7 × 10^−6 mol L^−1): 1.92 10^−8 mol min^−1 m^−2
- Rate of HAP crystal growth ([2]; C60(OH)16AMBP 3.09 × 10^−6 mol L^−1): 1.57 10^−8 mol min^−1 m^−2
- Rate of HAP crystal growth ([2]; C60(OH)16AMBP 3.47 × 10^−6 mol L^−1): 1.23 10^−8 mol min^−1 m^−2
- Percent Reduction in Growth Rate [2, 3]: 50%
- Percent Reduction in Growth Rate ([2]; Concentration 3.5 × 10^−6 mol/L): 87%
- Reduction of HAP crystal growth rate [2]: 87%

Molecule: Fullerenol[60] [C60(OH)30]
- Rate of HAP crystal growth ([2]; C60(OH)30 0.41 × 10^−6 mol L^−1): 8.31 10^−8 mol min^−1 m^−2
- Rate of HAP crystal growth ([2]; C60(OH)30 0.81 × 10^−6 mol L^−1): 7.8 10^−8 mol min^−1 m^−2
- Rate of HAP crystal growth ([2]; C60(OH)30 1.22 × 10^−6 mol L^−1): 6.55 10^−8 mol min^−1 m^−2
- Rate of HAP crystal growth ([2]; C60(OH)30 1.63 × 10^−6 mol L^−1): 5.94 10^−8 mol min^−1 m^−2
- Rate of HAP crystal growth ([2]; C60(OH)30 2.03 × 10^−6 mol L^−1): 5.7 10^−8 mol min^−1 m^−2
- Rate of HAP crystal growth ([2]; C60(OH)30 2.44 × 10^−6 mol L^−1): 4.65 10^−8 mol min^−1 m^−2
- Rate of HAP crystal growth ([2]; C60(OH)30 2.85 × 10^−6 mol L^−1): 4.07 10^−8 mol min^−1 m^−2
- Rate of HAP crystal growth ([2]; C60(OH)30 3.25 × 10^−6 mol L^−1): 3.97 10^−8 mol min^−1 m^−2
- Rate of HAP crystal growth ([2]; C60(OH)30 3.66 × 10^−6 mol L^−1): 3.85 10^−8 mol min^−1 m^−2
- Rate of HAP crystal growth ([2]; C60(OH)30 4.07 × 10^−6 mol L^−1): 2.64 10^−8 mol min^−1 m^−2
- Rate of HAP crystal growth ([2]; C60(OH)30 4.47 × 10^−6 mol L^−1): 2.49 10^−8 mol min^−1 m^−2
- Percent Reduction in Growth Rate [2, 3]: 28%
- Affinity Constant ([2]; Langmuir adsorption model, slope of Ro/R versus concentration): 414000 L/mol
- Reduction of HAP crystal growth rate [2]: 58%
